# Experimental data taken from a melting point compilation (Tetko et al.; mined from patent text by program, amines drawn as free bases though some values may be those of a salt).
row,Structure (SMILES),melting point
1,Cc1cc(Br)cnc1CCCCNc1ncc(Cc2ccc(Cl)cc2)c(=O)[nH]1,149 to 150 °C
2,O=C(N[C@@H]1CN(C2CCCCC2)C[C@H]1O)c1ccc(Cl)cc1 (relative stereo),158 to 160 °C
3,CCc1nc(-c2cccc(C)c2)c(-c2ccnc(NCC3CCCCC3)c2)s1,74 to 75 °C
4,CN(C)c1c(F)c(F)c(F)c(F)c1C(=O)O,90 to 100 °C
5,O=C1CC(CO)C(c2ccc(N3CCOCC3)c(Cl)c2)=NN1 (configuration not stated),173 to 175 °C
6,COC(=O)CCc1cn(Cc2ccc(C(=O)O)cc2OC)c2cc(C(=O)NCC3CCCC3)ccc12,181 to 182 °C
7,O=C(O)CCCOc1cccc(CCCCCCOc2ccc3c(c2CCCc2ccccc2)OCCC3=O)c1CCC(=O)O,104 to 106 °C
8,CO[C@@H](Cc1ccc(OCCc2nc(-c3ccc(C(F)(F)F)cc3)oc2C)c2ccccc12)C(=O)O,167 to 168 °C
9,CC(=O)CC(=O)N=C1SCCN1C,43 to 45 °C
10,O=C(CNc1c(C(=O)O)[nH]c2cc(Cl)cc(Cl)c12)c1ccc(F)cc1,259 to 261 °C
11,Cc1nn(-c2cc3[nH]c(=O)ccc3cc2F)c(=O)n1C(F)F,215 to 217 °C
12,O=C(N[C@H](Cc1ccc(C(F)(F)F)cc1)[C@@H](O)c1cccc2ccccc12)c1ccc(F)c2ccccc12 (racemic),195 to 196 °C
13,CC(=O)Nc1c(C#N)c(C#N)nn1-c1c(Cl)cc(C(F)(F)F)cc1Cl,208 to 209 °C
14,CC1CC(CN2CCNC2=N[N+](=O)[O-])CO1 (configuration not stated),109 to 110 °C
15,N#Cc1[nH]c2ccccc2c1-c1ccccc1,137 to 142 °C
16,NC(=O)N(O)CCCCNC(=O)c1cccc(Oc2ccccc2)c1,131 to 133 °C
17,CCCCOC(=O)Nc1ccnc(-c2ccncc2)n1,180 to 182 °C
18,O=C(O)CCCCCc1c([N+](=O)[O-])cc(O)c(O)c1[N+](=O)[O-],120 to 127 °C
19,CCCc1c(OCCCOc2ccc(C(=O)CCC(=O)O)cc2C)ccc(C(C)=O)c1O,179 to 180 °C
20,Clc1ccc(-n2ncnc2-c2cnccn2)cc1,129 to 131 °C

row,Structure (SMILES),melting point
1,COc1cc(CO)c(-c2cc3c(cc2CO)OCO3)c(OC)c1OC,123 to 124 °C
2,COc1ccc(C[C@@H](NC(=O)C2CCCCC2)[C@@H](O)c2ccc(F)cc2)cc1 (racemic),193 to 194 °C
3,CC(=O)OC1CC(C)(C)N(OC(=O)C23CC4CC(CC(C4)C2)C3)C(C)(C)C1,132 to 134 °C
4,O=CNCc1c[nH]c(=S)n1[C@H]1CCc2c(F)cc(F)cc2C1,245 to 246 °C
5,Cc1nnc(CN2CCCC2)n1-c1ccc(Cl)cc1C(=O)c1ccccc1,174 to 176 °C
6,Cc1c(C)c2c(c(C)c1O)SC(CCCO)O2 (configuration not stated),116 to 117 °C
7,CCOC(=O)Cc1ccc2c(c1)C(c1ccccc1Cl)=NCc1nnc(C)n1-2,157 to 158 °C
8,O=C(O)c1ccc2c(c1)nc(-c1ccc(Oc3cccc(OCc4ccncc4)c3)cc1)n2C1CCCCC1,235 to 237 °C
9,O=C(COc1ccccc1)NCCc1ccc(S(=O)(=O)NC(=O)c2ccc(C(=O)NCCO)nc2)cc1,155 to 156 °C
10,COc1ccc2c(c1O)N=CC1CCCN1C2=O (configuration not stated),150 to 153 °C
11,Clc1ccc(C2=CCN(Cc3n[nH]c4c(Cl)cccc34)CC2)cc1,171 to 173 °C
12,COC(=O)/C=C(C)/C=C/C(F)=C(C)/C=C/C1(C)C=C(C)OC1C (configuration not stated),122 to 126 °C
13,CC(C)(C)OC(=O)N[C@H]1CC[C@H](CC(=O)O)CC1,161 to 163 °C
14,N#Cc1cccc(NC(=O)Nc2ccc(-n3nc(C(F)(F)F)cc3C(F)(F)F)cc2)c1,204 to 205 °C
15,O=C(O)COc1cccc2c1Cc1sc(SC(c3ccccc3)c3ccccc3)nc1-2,224 to 225 °C
16,CCCCCCCCCCCC1=NC(=Cc2[nH]c(-c3ccc[nH]3)cc2OCC)C=C1,94 to 96 °C
17,S=c1nc(NCCCOc2cccc(CN3CCCCC3)c2)cc[nH]1,180 to 181 °C
18,CSc1ccc(-n2cnc3ccc(-c4nnc(C5CC5)o4)cc32)cc1,198 to 199 °C
19,O=C(CCc1cccnc1)c1c(O)c2cccnc2n(-c2ccccc2)c1=O,219 to 220 °C
20,N#CC1(c2ccc(OC(F)F)c(OC3CCCC3)c2)CCC(=O)CC1,76 to 78 °C

row,Structure (SMILES),melting point
1,O=c1ccsn1Cc1ccccc1,78 to 80 °C
2,COc1cc2c(cc1I)CCC2=O,140 °C
3,ClCc1nnc2n1-c1ccccc1C(c1ccccc1Cl)=NC2,186 to 188 °C
4,Cn1nnnc1-c1cn(C)c2cc(Cl)c(F)cc2c1=O,264 to 267 °C
5,C=C1CC2CC(O)CCC2(C)C2CCC3(C)C(C(C)CCC(=O)O)CCC3C12 (configuration not stated),104 to 105 °C
6,N#Cc1cnc2sc(-c3ccccc3)cc2c1Nc1cccc2[nH]ccc12,> 245 °C
7,C[C@H]1[C@@H](C(C)(C)O)CCN1c1ccc(C#N)c2sccc12,146 to 147 °C
8,COc1ccc(CC2COCc3nc4c(N)nc5ccccc5c4n32)cc1 (configuration not stated),115 to 130 °C
9,Cc1cc(Cl)c(C)cc1O,74 to 75 °C
10,CC(C)CC1NC(C)(C)CNC1=O (configuration not stated),112 to 115 °C
11,COc1cc(OC)cc(N2CCN(C(=S)Nc3nc4ccccc4nc3OC)CC2)c1,141 to 143 °C
12,Cc1c(C)c2c(c3c1NCC3)CC(C)(C)O2,107 to 109 °C
13,Cc1nc(CN2C(=O)COc3cc(N)ccc32)no1,146 to 148 °C
14,Cc1ccn(Cc2ccc(Cl)c(Cl)c2)c(=O)c1C#N,178 to 180 °C
15,CCOC(=O)/C=C(/c1ccc(OC)cc1)c1cc(Cl)cc(Cl)c1,116 to 118 °C
16,O=[N+]([O-])c1ccc2c(c1)[nH]c1cc([N+](=O)[O-])ccc12,> 300 °C
17,COc1cc(CCNC(=S)Nc2nccs2)ccc1OC(C)C,140 to 141 °C
18,Oc1ccc(Nc2cc(-c3ccccc3)[nH]n2)cc1,215 to 217 °C
19,O=C(NCCCn1cnc(-c2ccccc2)c1)c1ccc(Cl)cc1,103 to 105 °C
20,Cc1nnc(OC(=O)N2CCN(C)CC2)n1-c1ccc(Cl)cn1,214 to 216 °C

# More lines, now with the values ahead:
row,melting point,Structure (SMILES)
1,155 to 157 °C,CC(C)(Cc1ccc2oc(-c3nc(C(C)(C)C)cs3)cc2c1)C(=O)O
2,131 to 133 °C,COc1ccc(C(O)(CN)Cc2ccccc2N)cc1OC (configuration not stated)
3,221 to 223 °C,Cc1ccc(S(=O)(=O)Nc2cc(C(=O)O)c3c(c2)C(C(=O)O)CCN3)cc1 (configuration not stated)
4,146 °C,CNC(=O)N(c1ccccc1)c1cccc2ccccc12
5,77 to 79 °C,CCCc1c(OCCCOc2ccc(C(C)=O)c(OCCCC(=O)OCC)c2CCC)ccc(C(C)=O)c1O
6,156 to 158 °C,CCn1cc(Cl)nc(SCC(=O)Nc2ccccc2)c1=O
7,182 to 184 °C,COc1ccc2cc3ccccc3cc2c1
8,168 to 169 °C,COc1cc2c(c3c1OC(C)(C)C3)C(c1ccccc1)=NC(COC(C)=O)C2 (configuration not stated)
9,158 to 164 °C,CCCN(CCCc1c[nH]c2c(OC)cccc12)C1COc2c(F)ccc(C(N)=O)c2C1 (configuration not stated)
10,144 to 145 °C,CCCOC(=O)c1c(CBr)nc2cc(OC)c(OC)cc2c1-c1ccc(OC)c(OC)c1
11,158 to 160 °C,CC(=O)c1cc(C)cc(C)c1NC(=O)c1sccc1S(=O)(=O)Nc1onc(C)c1C
12,60 to 63 °C,COc1ccc(CC#N)c(C)c1OC
13,95 to 99 °C,COC(=O)CCn1nc2ccccn2c1=O
14,174 to 176 °C,CC(=O)CS(=O)(=O)NC1(c2ccc(OCc3ccc4ccccc4n3)cc2)CCCCCC1
15,75 to 77 °C,COC(=O)CNc1cc(F)cc(F)c1
16,154 to 155 °C,CC(=O)C1=C(O)C(C(=O)C=Cc2ccccc2)C(=O)OC1=O (configuration not stated)
17,210 to 212 °C,O=C1NS(=O)(=O)c2cccc(Cl)c21
18,223 to 224 °C,CC1Cc2c(c3cccnc3n(-c3ccccc3)c2=O)O1 (configuration not stated)
19,162 to 164 °C,COc1cc(Nc2nccc(-c3cccc(NC(C)=O)c3)n2)cc(OC)c1OC
20,245 to 247 °C,CCCOc1ccccc1C1=NC(=O)C2=NC(SC)=NC2=N1
21,90 to 93 °C,CNC(=O)[C@@H](N)C(C)(C)C

row,melting point,Structure (SMILES)
1,149 to 150 °C,Cc1nc2cccc3n(CCCCCNS(=O)(=O)C(F)(F)F)c(=O)c1n23
2,118 to 120 °C,Cc1c(NC(=O)C(CSC(=O)CC(C)C)Cc2ccccc2)cccc1C(=O)O (configuration not stated)
3,199 to 201 °C,COc1cc(Nc2c(C#N)cnc3cc(-c4ccc(CN(C)C)cc4)sc23)cc(OC)c1OC
4,120 °C,CCCCc1nc(SC)c(C(=O)OCC)n1Cc1cccc(-c2ccc(S(=O)(=O)NC#N)cc2)c1
5,83 °C,CC(C)(C)c1cccc(C(C)(C)C)c1OS(C)(=O)=O
6,128 to 131 °C,OCCc1c(Br)cc(Br)c2cccnc12
7,186 to 187 °C,COc1cc(OC)c(/C=C/S(=O)(=O)Cc2ccc(OC)c([N+](=O)[O-])c2)c(OC)c1
8,98.9 to 101 °C,CCC(=O)Nc1ccc2[nH]cc(C3CCN(C)CC3)c2n1
9,97 to 101 °C,COc1ccc(-n2ncc(-c3ccc(S(C)(=O)=O)cc3)c(-c3ccc(F)cc3)c2=O)cc1F
10,168 to 171 °C,CC(C)(F)c1nc[nH]c(=O)c1Cl
11,222 to 225 °C,Cc1cccc2c(=O)c(CCCl)n[nH]c12
12,151 to 152 °C,COc1ccc(Cl)cc1C(=O)NC1COc2cc(C)ccc2C1O (configuration not stated)
13,124 to 126 °C,CCOc1ccccc1NC(=O)C1Sc2ccc(Cl)cc2N(C)C1=O (configuration not stated)
14,192 to 194 °C,COC(=O)c1ccc2nc(CC(C)C)c(CNC(=O)OC(C)(C)C)c(-c3ccc(C)cc3)c2c1
15,184 to 186 °C,COc1ccc(S(=O)(=O)N2C(=O)C(O[Si](C)(C)C)(c3ccccc3F)c3cc(Cl)ccc32)c(OC)c1 (configuration not stated)
16,146 to 147 °C,CC(C)c1nn(-c2ccc(C(F)(F)F)cn2)cc1CCCOc1c(Br)cccc1CC(=O)O
17,156 to 158 °C,Cc1c(F)c(N2CC[C@@H](C(C)(C)N)C2)cc2c1c(=O)c(C(=O)O)cn2-c1ccc(F)cc1F
18,128 to 133 °C,CC(=O)c1ccc(C(F)(F)C(F)(F)c2ccccc2)cc1
19,136 to 137 °C,O=Cc1c[nH]c(-c2ccccc2)c1
20,165 to 166 °C,NC(=O)c1cc2ccccc2o1
21,158 to 160 °C,COc1cccc(-n2c(=O)n(O)c(=O)c3cc(F)c(N4CCN(C)CC4)cc32)c1
